How the values were obtained:
Format in all cases: functional, Homo sapiens
Set-up in all cases: dose or concentration left out as unconfirmed
Colon cancer organoid [1] = assay: Identification of compartment-specific drug sensitivities in O06 CRC organoid-stroma F06 CAF co-cultures. Organoid is transduced with Lucferase2-P2A-EGFP lentivirus, fibroblast with Renilla-dsRed lentivirus. Dual-Glo Luciferase assay is used to report viability data.
Colon cancer organoid [2] = assay: Identification of compartment-specific drug sensitivities in O14 CRC organoid-stroma F14 CAF co-cultures. Organoid is transduced with Lucferase2-P2A-EGFP lentivirus, fibroblast with Renilla-dsRed lentivirus. Dual-Glo Luciferase assay is used to report viability data.
Colon cancer organoid [3] = assay: Identification of compartment-specific drug sensitivities in O20 CRC organoid-stroma F20 CAF co-cultures. Organoid is transduced with Lucferase2-P2A-EGFP lentivirus, fibroblast with Renilla-dsRed lentivirus. Dual-Glo Luciferase assay is used to report viability data.
[4] = Transduced with Lucferase2-P2A-EGFP lentivirus
[5] = Transduced with Renilla-dsRed lentivirus

| Structure (SMILES) | Cell Viability (Colon cancer organoid [1]; [4]) | Cell Viability (Colon cancer organoid [1]; [5]) | Cell Viability (Colon cancer organoid [2]; [4]) | Cell Viability (Colon cancer organoid [2]; [5]) | Cell Viability (Colon cancer organoid [3]; [4]) | Cell Viability (Colon cancer organoid [3]; [5]) |
| --- | --- | --- | --- | --- | --- | --- |
| C[C@@H](Oc1cc(-n2cnc3ccc(CN4CCN(C)CC4)cc32)sc1C(N)=O)c1ccccc1C(F)(F)F [GSK-461364] | 8.2073% | 127.3% | 14.2355% | 96.4779% | 35.9092% | 141.481% |
| CN(C)CCCOc1ccc(-c2cc(NCCCn3cccn3)nc(S(C)(=O)=O)n2)cc1 | 126.468% | 129.443% | 139.487% | 89.5427% | 144.942% | 126.832% |
| CCNC(=O)c1cc2c(-c3cc(C(C)(C)O)ccc3Oc3c(C)cc(F)cc3C)cn(C)c(=O)c2[nH]1 [ABBV-744] | 91.6049% | 287.135% | 77.9517% | 194.681% | 58.4777% | 215.224% |
| Cc1sc2c(c1C)C(c1ccc(Cl)cc1)=N[C@@H](CC(=O)OC(C)(C)C)c1nnc(C)n1-2 | 24.0633% | 301.325% | 31.858% | 201.171% | 11.1793% | 145.881% |
| COc1cccc2c1c(O)c(C(=O)N(C)c1ccc(C(F)(F)F)cc1)c(=O)n2C [TASQUINIMOD] | 78.5663% | 130.265% | 112.754% | 82.8858% | 64.5374% | 99.9703% |
| CC(C)(O)[C@H](F)CN1Cc2cc(NC(=O)c3cnn4cccnc34)c(N3CCOCC3)cc2C1=O | 120.796% | 89.8431% | 105.194% | 83.4987% | 123.644% | 88.3121% |
| Cc1ccc2nc(NCCN)c3ncc(C)n3c2c1.O=C(O)C(F)(F)F.O=C(O)C(F)(F)F | 94.0156% | 112.188% | 111.823% | 88.3847% | 234.528% | 67.6056% |
| CC[C@@H]1CN(C(=O)NCC(F)(F)F)C[C@@H]1c1cnc2cnc3[nH]ccc3n12 [UPADACITINIB] | 104.182% | 86.3482% | 147.848% | 94.1248% | 123.879% | 83.5298% |
| O=C(NNS(=O)(=O)c1ccccc1)c1cc(-c2ccnnc2)ccc1F [WM-2474] | 92.1572% | 93.3483% | 98.8891% | 109.079% | 104.944% | 126.08% |
| Cc1cccc(-c2cnc3occ(-c4ccc(C(=O)O)c(C5CCCC5)c4)c3c2)c1 | 94.5335% | 126.561% | 146.067% | 87.0815% | 88.6258% | 133.429% |
| Cl.Cl.c1ccc([C@@H]2C[C@H]2NC2CCNCC2)cc1 | 78.4875% | 97.0217% | 85.8382% | 107.738% | 42.8532% | 97.3617% |
| CCCCN(Cc1ccccc1)C(=O)c1ccc(S(=O)(=O)Nc2ccccc2)cc1 | 68.2046% | 126.816% | 91.6685% | 100.658% | 74.981% | 116.955% |
| N#CN1CC[C@@H](C(=O)Nc2nc3c(s2)CN(C(=O)CN=[N+]=[N-])CC3)C1 [JYQ88] | 72.1963% | 58.5555% | 68.7487% | 88.1605% | 64.1943% | 84.2967% |
| C[C@H]1CC(=O)Nc2cc(C(=O)NCCC3CC3)ccc2N1C(=O)N1CC2CC2C1 (stereo partly specified) | 115.835% | 132.849% | 144.576% | 93.1136% | 106.68% | 112.87% |
| CCC(=O)N[C@H]1CC[C@@H](C(=O)N(C)c2ccc(-c3nc4ccccc4o3)cc2)C1 [BI 99179] | 14.7827% | 191.434% | 77.0742% | 106.772% | 33.9891% | 149.12% |
| COc1ccc(Cn2ccc3ccc(C(=O)NO)cc32)cc1 | 111.578% | 129.424% | 104.237% | 105.297% | 177.336% | 111.53% |
